Measurements: patent WO2022059996A1, “Blood circulation micro in-vitro corpuscle-mediated cancer treatment composition” (SEOUL TECHNO HOLDINGS Inc, priority 2020, dated 2022)

Columns and labels:
YAP [1] = assay: Immunocytochemical analysis of YAP expression and nuclear localization; type: cell-based; conditions: csEV incubation; KRCT-6j given on top of csEV
LNCaP-SL cells [2] = assay: csEV-mediated LNCaP-SL transwell migration inhibition; type: cell-based, human; conditions: csEV as attractant
YAP [3] = assay: csEV-induced nuclear localization of YAP in GR-H1993 cells; type: cell-based
LNCaP-SL cells [4] = assay: Antiproliferative screening in metastatic LNCaP-SL prostate cancer cells; type: cell-based, human; conditions: medium containing csEV and compound; inhibitory in both HCT116 and LNCaP-SL
[5] = tested on: GR-H1993 (gefitinib-resistant-H1993) cells; assay: csEV-mediated proliferation of GR-H1993 cells; type: cell-based; conditions: csEV treatment
HCT116 cells = assay: Antiproliferative screening in HCT116 colon cancer cells; type: cell-based, human; conditions: medium containing csEV and compound; inhibitory in both HCT116 and LNCaP-SL
LNCaP-SL cells [6] = assay: LNCaP-SL proliferation with docetaxel in the presence or absence of EV; type: cell-based, human; conditions: 50 nM docetaxel; EV-containing normal 10% FBS versus 10% FBS without EVs
GR-H1993 cells = assay: GR-H1993 xenograft mouse model; type: in vivo; conditions: gefitinib 25 mg/kg PO, KRCT-6j 20 mg/kg IP, daily for 28 days, male Athymic BALB/c-nu mice

## Cn1cc(-c2cnc(Nc3cc(Cl)cc(Cl)c3)nc2NC2CCCCC2)cn1 [KRCT-6j, N 4 -Cyclohexyl-N 2-(3,5-dichlorophenyl)-5-(1-methyl-1 H -pyrazol-4-yl)pyrimidine-2,4-diamine]
YAP [1]
  YAP expression and nuclear localization: decreased again
LNCaP-SL cells [2]
  inhibition of csEV-promoted migration of LNCaP-SL cells: inhibited by KRCT-6j in a concentration-dependent manner
YAP [3]
  csEV-induced nuclear localization of YAP: inhibited
LNCaP-SL cells [4]
  proliferation inhibitory response, LNCaP-SL: both cell inhibitory responses
[5]
  proliferation of GR-H1993 cells: inhibit only the proliferative effect of csEV-mediated GR-H1993
HCT116 cells
  proliferation inhibitory response, HCT116: both cell inhibitory responses

## CC(=O)O[C@@]12CO[C@@H]1C[C@H](O)[C@@]1(C)C(=O)[C@H](O)C3=C(C)[C@@H](OC(=O)[C@H](O)[C@@H](NC(=O)OC(C)(C)C)c4ccccc4)C[C@@](O)([C@@H](OC(=O)c4ccccc4)[C@H]21)C3(C)C [docetaxel]
LNCaP-SL cells [6]
  resistance of LNCaP-SL cells to docetaxel: much more resistant to docetaxel

## COc1cc2ncnc(Nc3ccc(F)c(Cl)c3)c2cc1OCCCN1CCOCC1 [gefitinib]
GR-H1993 cells
  tumor growth, GR-H1993 xenograft: did not affect tumor growth
